The source of these data is patent publication US20170152239A1, “BENZAMIDE AND HETEROBENZAMIDE COMPOUNDS” (PFIZER INC., priority 2012, published 2017).

The target of the experiment is WT EZH2 (EZH2 4 protein complex: EZH2, EED, SUZ12, RbAp48) (Homo sapiens, UniProt O75530+Q09028+Q15022+Q15910). The experiment can be described thus: WT EZH2 nucleosome assay. The experiment is classed as biochemical. To be noted: nucleosome assay, 5 nM EZH2 4-protein complex, 1.5 μM SAM; read-out: WT EZH2 IC50. In a few lines: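 Radiometric methyltransferase assay: 5 nM EZH2 four-protein complex, 1.5 μM 3H-SAM, 25 μg/mL HeLa oligonucleosomes, 50 nM recombinant H1 in 100 mM Tris pH 8.5, 4 mM DTT, 0.01% Tween-20. 60 min reaction, TCA quench, filter capture, scintillation counting; IC50 from 11-point 4-parameter fit; % effect at 20 μM.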
WT EZH2 (EZH2 4 protein complex: EZH2, EED, SUZ12, RbAp48), sequence (Q15910 whole entry): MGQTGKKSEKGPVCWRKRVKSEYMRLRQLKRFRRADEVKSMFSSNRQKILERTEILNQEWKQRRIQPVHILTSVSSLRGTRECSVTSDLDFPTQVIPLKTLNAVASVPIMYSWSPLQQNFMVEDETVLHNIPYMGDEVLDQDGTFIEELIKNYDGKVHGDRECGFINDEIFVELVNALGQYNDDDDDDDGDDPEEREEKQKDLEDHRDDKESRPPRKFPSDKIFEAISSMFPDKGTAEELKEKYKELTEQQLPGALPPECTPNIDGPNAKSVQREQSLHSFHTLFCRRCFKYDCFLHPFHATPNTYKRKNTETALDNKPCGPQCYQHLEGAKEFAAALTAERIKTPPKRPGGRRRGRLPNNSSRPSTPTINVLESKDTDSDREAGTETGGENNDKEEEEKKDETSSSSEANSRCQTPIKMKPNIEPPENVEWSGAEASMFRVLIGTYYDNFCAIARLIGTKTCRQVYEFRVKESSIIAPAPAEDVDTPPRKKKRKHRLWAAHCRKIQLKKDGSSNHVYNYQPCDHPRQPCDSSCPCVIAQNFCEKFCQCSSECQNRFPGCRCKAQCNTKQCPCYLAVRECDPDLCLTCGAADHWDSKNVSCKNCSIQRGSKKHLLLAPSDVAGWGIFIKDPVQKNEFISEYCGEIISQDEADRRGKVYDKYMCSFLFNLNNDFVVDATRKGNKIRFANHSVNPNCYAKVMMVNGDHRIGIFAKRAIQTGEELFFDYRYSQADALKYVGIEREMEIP
WT EZH2 (EZH2 4 protein complex: EZH2, EED, SUZ12, RbAp48), sequence (O75530 whole entry partner): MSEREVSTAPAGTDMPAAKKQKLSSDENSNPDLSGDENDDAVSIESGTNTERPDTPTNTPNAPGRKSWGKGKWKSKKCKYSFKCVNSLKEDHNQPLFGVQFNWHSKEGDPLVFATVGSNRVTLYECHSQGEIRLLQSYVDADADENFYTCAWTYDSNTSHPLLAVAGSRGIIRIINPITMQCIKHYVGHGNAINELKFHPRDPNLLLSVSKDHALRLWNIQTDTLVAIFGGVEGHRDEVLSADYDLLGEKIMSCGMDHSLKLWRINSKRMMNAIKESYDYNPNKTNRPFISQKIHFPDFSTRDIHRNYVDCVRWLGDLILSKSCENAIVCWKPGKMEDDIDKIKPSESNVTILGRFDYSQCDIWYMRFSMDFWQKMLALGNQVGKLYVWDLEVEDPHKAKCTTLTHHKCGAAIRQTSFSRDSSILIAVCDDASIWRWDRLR
WT EZH2 (EZH2 4 protein complex: EZH2, EED, SUZ12, RbAp48), sequence (Q15022 whole entry partner): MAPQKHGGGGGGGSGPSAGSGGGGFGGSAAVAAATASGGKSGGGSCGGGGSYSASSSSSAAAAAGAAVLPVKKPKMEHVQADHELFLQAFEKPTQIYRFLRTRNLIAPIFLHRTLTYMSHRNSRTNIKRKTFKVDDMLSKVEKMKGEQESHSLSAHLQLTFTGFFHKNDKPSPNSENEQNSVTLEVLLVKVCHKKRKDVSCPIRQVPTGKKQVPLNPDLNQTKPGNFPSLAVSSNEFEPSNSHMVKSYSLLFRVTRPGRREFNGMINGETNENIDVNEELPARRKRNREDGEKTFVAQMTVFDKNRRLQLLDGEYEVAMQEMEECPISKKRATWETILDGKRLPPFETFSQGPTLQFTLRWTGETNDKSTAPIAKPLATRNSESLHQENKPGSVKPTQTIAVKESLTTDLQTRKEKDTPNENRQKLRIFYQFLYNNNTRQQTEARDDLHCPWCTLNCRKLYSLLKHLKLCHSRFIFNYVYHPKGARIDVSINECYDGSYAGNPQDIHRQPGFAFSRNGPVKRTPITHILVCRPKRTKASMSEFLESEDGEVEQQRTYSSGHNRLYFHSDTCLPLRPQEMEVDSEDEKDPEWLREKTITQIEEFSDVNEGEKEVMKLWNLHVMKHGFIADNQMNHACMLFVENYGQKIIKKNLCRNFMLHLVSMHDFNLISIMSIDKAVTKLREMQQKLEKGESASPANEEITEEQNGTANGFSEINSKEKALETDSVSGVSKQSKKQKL
WT EZH2 (EZH2 4 protein complex: EZH2, EED, SUZ12, RbAp48), sequence (Q09028 whole entry partner): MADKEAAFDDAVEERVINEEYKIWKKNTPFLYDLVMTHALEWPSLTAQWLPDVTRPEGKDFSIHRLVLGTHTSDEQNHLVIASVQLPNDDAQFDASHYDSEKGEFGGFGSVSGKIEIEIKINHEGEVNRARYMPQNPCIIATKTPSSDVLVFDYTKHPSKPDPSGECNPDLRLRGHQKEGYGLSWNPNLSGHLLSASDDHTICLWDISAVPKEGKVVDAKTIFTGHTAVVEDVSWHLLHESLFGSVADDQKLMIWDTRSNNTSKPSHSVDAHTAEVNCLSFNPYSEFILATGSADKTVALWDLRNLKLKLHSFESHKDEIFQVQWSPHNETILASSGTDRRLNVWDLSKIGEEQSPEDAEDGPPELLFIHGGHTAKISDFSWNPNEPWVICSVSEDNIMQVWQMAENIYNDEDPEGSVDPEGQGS
As for `Cc1cc(C)c(CNC(=O)c2ncnc(N3CCC[C@@H]3C(N)=O)c2C)c(=O)[nH]1` [Example 145, 6-[(2R)-2-carbamoyl-pyrrolidin-1-yl]-N-[(4,6-dimethyl-2-oxo-1,2-dihydropyridin-3-yl)methyl]-5-methylpyrimi-dine-4-carboxamide], the IC50 is over 200 µM.
In the case of `Cc1cc(C)c(CNC(=O)c2ncnc(N3CCOCC3)c2C)c(=O)[nH]1` [Example 123, N-[(4,6-dimethyl-2-oxo-1,2-dihydropyridin-3-yl)methyl]-5-methyl-6-morpholin-4-ylpyrimidine-4-carboxamide] it was 44.4 µM; in that of `Cc1cc(C)c(CNC(=O)c2ncnc(-c3ccnn3C)c2C)c(=O)[nH]1` [Example 124, N-[(4,6-dimethyl-2-oxo-1,2-dihydropyridin-3-yl)methyl]-5-methyl-6-(1-methyl-1H-pyrazol-5-yl)pyrimidine-4-carboxamide], 49.3 µM.
In the case of `Cc1cc(C)c(CNC(=O)c2cc(-c3cncnc3)cc(-c3ccnn3C)c2C)c(=O)[nH]1` [Example 17, N-[(4,6-dimethyl-2-oxo-1,2-dihydropyridin-3-yl)methyl]-2-methyl-3-(1-methyl-1H-pyrazol-5-yl)-5-pyrimidin-5-ylbenzamide] it was 0.16 µM; in that of `CCc1nncn1-c1cc(Cl)cc(C(=O)NCc2c(C)cc(C)[nH]c2=O)c1C` [Example 61, 5-chloro-N-[(4,6-dimethyl-2-oxo-1,2-dihydropyridin-3-yl)methyl]-3-(3-ethyl-4H-1,2,4-triazol-4-yl)-2-methylbenz-amide], 4.21 µM.
Regarding `Cc1cc(C)c(CNC(=O)c2ncnc(N3CC[C@@H](C)C3)c2C)c(=O)[nH]1` [Example 120, N-[(4,6-dimethyl-2-oxo-1,2-dihydropyridin-3-yl)methyl]-5-methyl-6-[(3R)-3-methylpyrrolidin-1-yl]pyrimidine-4-carboxamide], the IC50 stood at 40.5 µM.
In the case of `Cc1cc(C)c(CNC(=O)c2ncnc(N3CC[C@H]4C[C@H]43)c2C)c(=O)[nH]1` [Example 136, 6-[(1R,5S)-2-azabicyclo[3.1.0]hex-2-yl]-N-[(4,6-dimethyl-2-oxo-1,2-dihydropyridin-3-yl)methyl]-5-methyl-pyrimidine-4-carboxamide] it was 161 µM.
The same measure for `Cc1cc(C)c(CNC(=O)c2cc(Cl)cc(-c3c(C)cnn3C)c2C)c(=O)[nH]1` [Example 7, 5-chloro-N-[(4,6-dimethyl-2-oxo-1,2-dihydropyridin-3-yl)methyl]-3-(1,4-dimethyl-1H-pyrazol-5-yl)-2-methylbenzamide]: 0.22 µM.
In the case of `Cc1cc(C)c(CNC(=O)c2cc(-c3cnn(C)c3)cc(-c3ccnn3C)c2C)c(=O)[nH]1` [Example 18, N-[(4,6-dimethyl-2-oxo-1,2-dihydropyridin-3-yl)methyl]-2-methyl-5-(1-methyl-1H-pyrazol-4-yl)-3-(1-methyl-1H-pyrazol-5-yl)benzamide] it was 0.14 µM.
Regarding `Cc1cc(C)c(CNC(=O)c2cccc(-c3ccnn3C)c2Cl)c(=O)[nH]1` [Example 9, 2-chloro-N-[(4,6-dimethyl-2-oxo-1,2-dihydropyridin-3-yl)methyl]-3-(1-methyl-1H-pyrazol-5-yl)benzamide], the IC50 is 0.7 µM.
In the case of `Cc1cc(C)c(CNC(=O)c2nc(C3CC3)nc(N3CCC[C@@H]3C)c2C)c(=O)[nH]1` [Example 54, 2-cyclopropyl-N-[(4,6-dimethyl-2-oxo-1,2-dihydropyridin-3-yl)methyl]-5-methyl-6-[(2S)-2-methylpyrrolidin-1-yl]pyrimidine-4-carboxamide] it was 2.83 µM.
For the molecule `Cc1cc(C)c(CNC(=O)c2nc(-c3cncnc3)nc(N3CCC[C@@H]3C)c2C)c(=O)[nH]1` [Example 44, N-[(4,6-dimethyl-2-oxo-1,2-dihydropyridin-3-yl)methyl]-5-methyl-6-[(2S)-2-methylpyrrolidin-1-yl]-2,5′-bipyrimidine-4-carboxamide], the IC50 was 1.41 µM.
The same measure for `Cc1cc(C)c(CNC(=O)c2nc(OCCN3CC[C@@H](F)C3)nc(-c3ccnn3C)c2C)c(=O)[nH]1` [Example 103, N-[(4,6-dimethyl-2-oxo-1,2-dihydropyridin-3-yl)methyl]-2-{2-[(3R)-3-fluoropyrrolidin-1-yl]ethoxy}-5-methyl-6-(1-methyl-1H-pyrazol-5-yl)pyrimidine-4-carboxamide]: 19.1 µM; for `Cc1cc(C)c(CNC(=O)c2cc(C#N)cc(-c3c(C)cnn3C)c2C)c(=O)[nH]1` [Example 30, 5-cyano-N-[(4,6-dimethyl-2-oxo-1,2-dihydropyridin-3-yl)methyl]-3-(1,4-dimethyl-1H-pyrazol-5-yl)-2-methylbenzamide]: 0.54 µM.
With `Cc1cc(C)c(CNC(=O)c2nc(-c3ccc(N)nc3)nc(N3CCC[C@@H]3C)c2C)c(=O)[nH]1` [Example 45, 2-(6-aminopyridin-3-yl)-N-[(4,6-dimethyl-2-oxo-1,2-dihydropyridin-3-yl)methyl]-5-methyl-6-[(2S)-2-methylpyrrolidin-1-yl]pyrimidine-4-carboxamide], the half-maximal inhibitory concentration (IC50) came out at 1.53 µM.
In the case of `Cc1cc(C)c(CNC(=O)c2ncnc(N3CCCC3)c2C)c(=O)[nH]1` [Example 125, N-[(4,6-dimethyl-2-oxo-1,2-dihydropyridin-3-yl)methyl]-5-methyl-6-pyrrolidin-1-ylpyrimidine-4-carboxamide] it was 50.7 µM; in that of `Cc1cc(C)c(CNC(=O)c2nc(-c3cnc(N(C)C)nc3)nc(-c3ccnn3C)c2C)c(=O)[nH]1` [Example 51, 2′-(dimethylamino)-N-[(4,6-dimethyl-2-oxo-1,2-dihydropyridin-3-yl)methyl]-5-methyl-6-(1-methyl-1H-pyrazol-5-yl)-2 ,5′-bipyrimidine-4-carboxamide], 2.11 µM; in that of `Cc1cc(C)c(CNC(=O)c2ncnc(N3C4CCC3CC4)c2C)c(=O)[nH]1` [Example 83, 6-(7-azabicyclo[2.2.1]hept-7-yl)-N-[(4,6-dimethyl-2-oxo-1,2-dihydropyridin-3-yl)methyl]-5-methyl-pyrimidine-4-carobxamide], 7.96 µM.
In the case of `Cc1cc(C)c(CNC(=O)c2cc(C3=CCOCC3)cc(C3=CCOCC3)c2C)c(=O)[nH]1` [Example 42, 3,5-di-3,6-dihydro-2H-pyran-4-yl-N-[(4,6-dimethyl-2-oxo-1,2-dihydropyridin-3-yl)methyl]-2-methylbenz-amide] it was 1.12 µM; in that of `Cc1cc(C)c(CNC(=O)c2ncnc(N3CCCC3(C)C)c2C)c(=O)[nH]1` [Example 59, N-[(4,6-dimethyl-2-oxo-1,2-dihydropyridin-3-yl)methyl]-6-(2,2-dimethylpyrroli-din-1-yl)-5-methylpyrimidine-4-carboxamide], 3.91 µM.
Regarding `Cc1cc(C)c(CNC(=O)c2cc(Cl)cc(-n3nnnc3C)c2C)c(=O)[nH]1` [Example 52, 5-chloro-N-[(4,6-dimethyl-2-oxo-1,2-dihydropyridin-3-yl)methyl]-2-methyl-3-(5-methyl-1H-tetrazol-1-yl)benzamide], the 50% inhibitory concentration (IC50) was found to be 2.46 µM.
In the case of `CCn1ncc(C)c1-c1cccc(C(=O)NCc2c(C)cc(C)[nH]c2=O)c1C` [Example 12, N-[(4,6-dimethyl-2-oxo-1,2-dihydropyridin-3-yl)methyl]-3-(1-ethyl-4-methyl-1H-pyrazol-5-yl)-2-methylbenzamide] it was 0.11 µM.
The same measure for `COC1CCN(c2nc(C(=O)NCc3c(C)cc(C)[nH]c3=O)c(C)c(-c3ccnn3C)n2)CC1` [Example 68, N-[(4,6-dimethyl-2-oxo-1,2-dihydropyridin-3-yl)methyl]-2-(4-methoxypiperi-din-1-yl)-5-methyl-6-(1-methyl-1H-pyrazol-5-yl)pyrimidine-4-carboxamide]: 5.19 µM; for `Cc1cc(C)c(CNC(=O)c2cccc(OC(C)C)c2F)c(=O)[nH]1` [Example 130, N-[(4,6-dimethyl-2-oxo-1,2-dihydropyridin-3-yl)methyl]-2-fluoro-3-isopropoxy-benzamide]: 67.9 µM.
The same measure for `Cc1cc(C)c(CNC(=O)c2nc(O[C@@H]3CCOC3)nc(-c3ccnn3C)c2C)c(=O)[nH]1` [Example 93, N-[(4,6-dimethyl-2-oxo-1,2-dihydropyridin-3-yl)methyl]-5-methyl-6-(1-methyl-1H-pyrazol-5-yl)-2-[(3R)-tetrahydro-furan-3-yloxy]pyrimi-dine-4-carboxamide]: 14.5 µM; for `Cc1cc(C)c(CNC(=O)c2ccnc(N3[C@H](C)CC[C@@H]3C)c2Cl)c(=O)[nH]1` [Example 97, 3-chloro-N-[(4,6-dimethyl-2-oxo-1,2-dihydropyridin-3-yl)methyl]-2-[(2R,5S)-2,5-dimethylpyrroli-din-1-yl]iso-nicotinamide]: 16.9 µM; for `Cc1cc(C)c(CNC(=O)c2ncnc(N3CCOC[C@@H]3C)c2C)c(=O)[nH]1` [Example 75, N-[(4,6-dimethyl-2-oxo-1,2-dihydropyridin-3-yl)methyl]-5-methyl-6-[(3S)-3-methylmorph-olin-4-yl]pyrimidine-4-carboxamide]: 6.78 µM.
As for `Cc1cc(C)c(CNC(=O)c2nc(OCCN3CC(F)C3)nc(-c3ccnn3C)c2C)c(=O)[nH]1` [Example 109, N-[(4,6-dimethyl-2-oxo-1,2-dihydropyridin-3-yl)methyl]-2-[2-(3-fluoroazetidin-1-yl)ethoxy]-5-methyl-6-(1-methyl-1H-pyrazol-5-yl)pyrimidine-4-carboxamide], the IC50 is 23 µM.
The same measure for `CCn1ncc(C)c1-c1cccc(C(=O)NCc2c(C)c(Cl)c(C)[nH]c2=O)c1C` [Example 148, N-[(5-chloro-4,6-dimethyl-2-oxo-1,2-dihydropyridin-3-yl)methyl]-3-(1-ethyl-4-methyl-1H-pyrazol-5-yl)-2-methyl-benzamide]: over 200 µM.
